Data published in patent US9617267B2, “Compounds and methods for kinase modulation, and indications therefor” (Plexxikon Inc., priority 2009, dated 2017).
Read-outs that look alike come from different tables or passages of the source.

What was measured:
B-Raf [1] = molecular target: B-Raf (Homo sapiens (Human), UniProt P15056); assay: B-Raf kinase activity biochemical assay (AlphaScreen, biotin-MEK1 phosphorylation); settings: B-Raf
Method: (§1) Compounds to be tested are diluted in dimethyl sulfoxide to a concentration of 0.1 mM. These are serially diluted 15 μL into 30 μL of dimethyl sulfoxide seven times in 96 well plates for a total of 8 dilution points, and for each dilution point 1 μL is added to a well of an assay plate. […] The reaction is started with addition of 10 μL of 200 μM ATP (i.e. final 100 μM ATP). After incubation of the kinase reaction for 45 minutes at room temperature, 5 μL/well of Stop Solution is added (25 mM Hepes pH 7.5, 100 mM EDTA, 0.01% BSA with donor beads (Streptavidin coated beads, Perkin Elmer), acceptor beads (Protein A coated, Perkin Elmer), and anti phosphor MEK1/2 antibody (CellSignal), each at final concentration 10 μg/mL). The plates are incubated for 3 hours at room temperature and read on Envision reader (Perkin Elmer). […] The signal vs. compound concentration is used to determine the IC50.

B-Raf [2] = assay: as above; settings: for Biochemical activity ratio B/V600E: ratio of IC50 B-Raf / B-Raf V600E; for Biochemical activity ratio B/C: ratio of IC50 B-Raf / c-Raf-1
Method: as §1

B-Raf V600E = B-Raf V600E (Homo sapiens (Human), UniProt P15056, V600E); assay: B-Raf V600E kinase activity biochemical assay (AlphaScreen, biotin-MEK1 phosphorylation); settings: for IC50: B-Raf V600E; for Biochemical activity ratio V600E/C: ratio of IC50 B-Raf V600E / c-Raf-1
Method: as §1

c-Raf-1 = c-Raf-1 (Homo sapiens, UniProt P04049); assay: c-Raf-1 kinase activity biochemical assay (AlphaScreen, biotin-MEK1 phosphorylation)
Method: as §1

[3] = Relative solubility by turbidity threshold concentration in aqueous buffers (pH 1.5, 4.5, 6.8, 7.4); assay type: physicochemical; settings: for turbidity threshold (L, M, H) 6.8: pH 6.8 (SIF); for turbidity threshold (L, M, H) 7.4: pH 7.4 (HEPES); for turbidity threshold (L, M, H) 1.4: pH 1.4 [sic] (method: SGF pH 1.5)
Summary of the method: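 Solubility class (high >250 μM, moderate 31.3–250 μM, low <31.3 μM) comes from the concentration where absorbance reaches a 0.01 threshold, averaged across 490/535/650 nm. Samples were compound dilutions from DMSO stock, 1 μL into 99 μL buffer at pH 1.5, 4.5, 6.8 or 7.4.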

CYP1A2 = CYP1A2 (Homo sapiens (Human), UniProt P05177); assay: CYP enzyme inhibition, fluorescent substrate (CEC)
Method: (§2) CYP (Cytochrome P450) enzymes are the major drug metabolizing enzymes present in the liver. The inhibition of CYP enzyme activity (IC50) for each of CYP1A2, CYP2C19, CYP2C9, CYP2D6, CYP3A4(BFC) and CYP3A4(BQ) is determined for compounds, where inhibition of metabolism of a known substrate leads to a decrease in the fluorescence of the metabolized product. The fluorescence of the product is monitored as a function of compound concentration.
(§3) Compounds are dissolved in dimethyl sulfoxide to a concentration of 100 mM. These are diluted 1 μL into 82 μL of acetonitrile. An 11 μL aliquot of this solution is then added to 204 μL of cofactor mix (1.3% NADPH Regeneration system Solution A, 1.04% NADPH Regeneration system Solution B from BD Biosciences, 5% acetonitrile and 0.05% dimethyl sulfoxide). These are then serially diluted 1:1 (160 μL to 160 μL co-factor mix) for a total of 10 points. A 10 μL aliquot of this final mixture is dispensed into 384 well assay plates and incubated for 10 minutes at 37° C. Enzyme and substrate mix (10 μL; 0.5 pmol CYP1A2/5 μM CEC; 1.0 pmol CYP2C9/75 μM MFC; 0.5 pmol CYP2C19/25 μM CEC; 1.5 pmol CYP2D6/1.5 μM AMMC; 1.0 pmol CYP3A4/50 μM BFC; or 1.0 pmol CYP3A4/40 μM BQ) is added to these assay plates. Assay plates are incubated at 37° C. (CYP1A2-15 min; CYP2C9-45 min; CYP2C19, 2D6 and 3A4-30 min) and read in a Tecan Safire 2 plate reader (CYP1A2, 2C19 and 3A4 409 ex/460 em; CYP2C9 and 2D6 409 ex/530 em). The signal versus compound concentration is used to determine the IC50. The enzymes and substrates for this assay are obtained from BD Biosciences.

CYP2C19 = CYP2C19 (Homo sapiens (Human), UniProt P33261); assay: CYP enzyme inhibition, fluorescent substrate (CEC); settings: read-out: Cyp IC50 2C19; CYP2C19, substrate CEC
Method: as §2
(§4) Compounds are dissolved in dimethyl sulfoxide to a concentration of 100 mM. These are diluted 1 μL into 82 μL of acetonitrile. […] These are then serially diluted 1:1 (160 μL to 160 μL co-factor mix) for a total of 10 points. A 10 μL aliquot of this final mixture is dispensed into 384 well assay plates and incubated for 10 minutes at 37° C. […] Assay plates are incubated at 37° C. […] The signal versus compound concentration is used to determine the IC50. The enzymes and substrates for this assay are obtained from BD Biosciences.

CYP2C9 = CYP2C9 (Homo sapiens (Human), UniProt P11712); assay: CYP enzyme inhibition, fluorescent substrate (MFC); settings: read-out: Cyp IC50 2C9; CYP2C9, substrate MFC
Method: as §2, §4

CYP2D6 = CYP2D6 (Homo sapiens (Human), UniProt P10635); assay: CYP enzyme inhibition, fluorescent substrate (AMMC); assay type: in vitro ADME; settings: read-out: Cyp IC50 2D6
Method: as §2, §3

CYP3A4(BFC) = CYP3A4(BFC) (Homo sapiens (Human), UniProt P08684); assay: CYP enzyme inhibition, fluorescent substrate BFC
Method: as §2, §4

[4] = read-out: Cyp IC50 3A4(BFC), CYP3A4, substrate BFC

B-Raf (Homo sapiens (Human), UniProt P15056), sequence (P15056 whole entry): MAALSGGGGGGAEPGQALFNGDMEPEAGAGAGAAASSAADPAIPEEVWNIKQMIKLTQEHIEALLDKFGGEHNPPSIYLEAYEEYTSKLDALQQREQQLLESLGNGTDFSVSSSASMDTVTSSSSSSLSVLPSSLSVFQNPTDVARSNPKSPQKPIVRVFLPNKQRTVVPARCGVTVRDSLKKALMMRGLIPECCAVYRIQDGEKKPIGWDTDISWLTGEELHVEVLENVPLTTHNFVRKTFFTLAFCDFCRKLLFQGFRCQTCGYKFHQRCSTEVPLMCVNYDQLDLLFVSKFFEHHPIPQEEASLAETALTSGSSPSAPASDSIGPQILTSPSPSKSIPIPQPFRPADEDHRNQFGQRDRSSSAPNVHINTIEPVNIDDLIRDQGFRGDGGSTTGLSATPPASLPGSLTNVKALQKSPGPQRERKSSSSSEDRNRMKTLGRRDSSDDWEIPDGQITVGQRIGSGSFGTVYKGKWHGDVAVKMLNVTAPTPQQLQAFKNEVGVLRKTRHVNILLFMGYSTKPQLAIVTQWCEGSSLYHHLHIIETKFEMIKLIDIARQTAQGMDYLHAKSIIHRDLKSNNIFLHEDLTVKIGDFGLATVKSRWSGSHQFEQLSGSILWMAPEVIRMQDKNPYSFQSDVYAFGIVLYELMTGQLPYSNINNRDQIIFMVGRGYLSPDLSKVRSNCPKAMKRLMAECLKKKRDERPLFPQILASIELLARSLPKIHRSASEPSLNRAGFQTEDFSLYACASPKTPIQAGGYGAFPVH
CYP2D6, sequence (P10635 whole entry): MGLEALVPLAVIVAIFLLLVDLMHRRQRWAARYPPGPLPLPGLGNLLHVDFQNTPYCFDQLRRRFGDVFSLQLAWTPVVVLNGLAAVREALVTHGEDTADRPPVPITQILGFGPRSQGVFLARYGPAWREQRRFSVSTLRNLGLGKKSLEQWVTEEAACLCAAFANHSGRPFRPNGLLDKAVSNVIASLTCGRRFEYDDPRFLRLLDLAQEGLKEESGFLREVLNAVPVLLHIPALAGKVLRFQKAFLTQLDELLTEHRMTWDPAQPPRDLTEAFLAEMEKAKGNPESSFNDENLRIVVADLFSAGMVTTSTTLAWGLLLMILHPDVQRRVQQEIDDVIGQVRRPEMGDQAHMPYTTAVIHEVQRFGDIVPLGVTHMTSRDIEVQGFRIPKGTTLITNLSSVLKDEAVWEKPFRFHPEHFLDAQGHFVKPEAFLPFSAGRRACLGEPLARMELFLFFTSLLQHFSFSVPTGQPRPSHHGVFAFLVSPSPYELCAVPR
CYP1A2, sequence (P05177 whole entry): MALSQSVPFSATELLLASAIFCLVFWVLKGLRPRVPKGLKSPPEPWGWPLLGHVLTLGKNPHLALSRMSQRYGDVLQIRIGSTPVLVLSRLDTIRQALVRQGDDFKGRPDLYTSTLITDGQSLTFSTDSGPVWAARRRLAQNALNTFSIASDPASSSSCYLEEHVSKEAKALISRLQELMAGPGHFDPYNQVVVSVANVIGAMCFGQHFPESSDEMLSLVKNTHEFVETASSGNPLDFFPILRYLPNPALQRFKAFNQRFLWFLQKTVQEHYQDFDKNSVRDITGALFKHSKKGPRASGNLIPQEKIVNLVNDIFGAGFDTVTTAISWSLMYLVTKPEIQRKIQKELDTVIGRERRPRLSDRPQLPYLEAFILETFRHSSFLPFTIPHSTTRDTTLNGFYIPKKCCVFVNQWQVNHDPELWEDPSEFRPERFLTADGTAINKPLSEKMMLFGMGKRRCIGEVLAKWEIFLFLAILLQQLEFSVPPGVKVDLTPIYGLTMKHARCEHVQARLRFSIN
c-Raf-1, sequence (P04049 whole entry, looked up): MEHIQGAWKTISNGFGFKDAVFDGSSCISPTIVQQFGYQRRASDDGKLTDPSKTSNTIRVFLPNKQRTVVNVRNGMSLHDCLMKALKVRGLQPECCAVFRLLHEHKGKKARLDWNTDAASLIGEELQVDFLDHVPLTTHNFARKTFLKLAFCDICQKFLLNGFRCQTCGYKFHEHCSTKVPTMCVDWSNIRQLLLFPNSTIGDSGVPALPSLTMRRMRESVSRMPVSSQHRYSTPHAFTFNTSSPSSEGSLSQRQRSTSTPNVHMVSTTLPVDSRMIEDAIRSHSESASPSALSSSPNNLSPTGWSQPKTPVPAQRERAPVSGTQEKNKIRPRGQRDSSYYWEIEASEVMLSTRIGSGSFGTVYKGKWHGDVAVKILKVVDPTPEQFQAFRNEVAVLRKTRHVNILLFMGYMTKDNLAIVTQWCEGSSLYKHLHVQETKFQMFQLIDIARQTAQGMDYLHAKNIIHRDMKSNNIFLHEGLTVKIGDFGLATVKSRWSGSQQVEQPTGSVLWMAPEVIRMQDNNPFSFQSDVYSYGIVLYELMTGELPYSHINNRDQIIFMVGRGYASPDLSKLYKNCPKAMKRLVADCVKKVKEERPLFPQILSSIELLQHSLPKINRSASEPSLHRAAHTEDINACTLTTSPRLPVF
CYP2C19, sequence (P33261 whole entry): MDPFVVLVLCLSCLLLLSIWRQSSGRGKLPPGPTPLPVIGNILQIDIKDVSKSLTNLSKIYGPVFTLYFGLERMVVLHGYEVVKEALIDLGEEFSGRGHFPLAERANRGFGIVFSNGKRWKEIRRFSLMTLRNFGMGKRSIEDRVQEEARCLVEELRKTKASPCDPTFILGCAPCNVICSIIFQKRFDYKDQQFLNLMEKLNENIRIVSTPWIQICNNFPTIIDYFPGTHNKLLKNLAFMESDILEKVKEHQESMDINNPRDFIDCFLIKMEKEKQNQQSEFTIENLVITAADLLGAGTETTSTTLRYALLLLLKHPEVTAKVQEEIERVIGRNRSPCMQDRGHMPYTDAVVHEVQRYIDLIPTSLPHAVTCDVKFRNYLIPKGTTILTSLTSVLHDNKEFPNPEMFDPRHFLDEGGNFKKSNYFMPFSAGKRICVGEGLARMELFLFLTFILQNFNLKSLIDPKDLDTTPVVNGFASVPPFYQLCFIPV
CYP2C9, sequence (P11712 whole entry): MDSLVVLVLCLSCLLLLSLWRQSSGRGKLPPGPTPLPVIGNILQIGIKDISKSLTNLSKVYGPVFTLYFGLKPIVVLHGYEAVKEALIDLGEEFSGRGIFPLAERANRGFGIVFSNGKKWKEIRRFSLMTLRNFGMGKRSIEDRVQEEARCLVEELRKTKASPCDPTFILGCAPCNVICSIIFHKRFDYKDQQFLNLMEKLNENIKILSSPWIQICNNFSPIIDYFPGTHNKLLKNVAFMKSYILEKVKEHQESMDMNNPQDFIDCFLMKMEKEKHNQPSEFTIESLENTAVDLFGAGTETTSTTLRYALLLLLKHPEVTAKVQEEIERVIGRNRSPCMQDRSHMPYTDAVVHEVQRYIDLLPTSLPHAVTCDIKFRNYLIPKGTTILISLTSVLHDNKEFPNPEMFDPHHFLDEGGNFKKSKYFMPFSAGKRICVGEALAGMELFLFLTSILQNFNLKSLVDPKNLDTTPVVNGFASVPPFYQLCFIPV
B-Raf V600E, sequence (P15056 whole entry V600E): as the sequence (P15056 whole entry) above, with V600E counted along it
CYP3A4(BFC), sequence (P08684 whole entry): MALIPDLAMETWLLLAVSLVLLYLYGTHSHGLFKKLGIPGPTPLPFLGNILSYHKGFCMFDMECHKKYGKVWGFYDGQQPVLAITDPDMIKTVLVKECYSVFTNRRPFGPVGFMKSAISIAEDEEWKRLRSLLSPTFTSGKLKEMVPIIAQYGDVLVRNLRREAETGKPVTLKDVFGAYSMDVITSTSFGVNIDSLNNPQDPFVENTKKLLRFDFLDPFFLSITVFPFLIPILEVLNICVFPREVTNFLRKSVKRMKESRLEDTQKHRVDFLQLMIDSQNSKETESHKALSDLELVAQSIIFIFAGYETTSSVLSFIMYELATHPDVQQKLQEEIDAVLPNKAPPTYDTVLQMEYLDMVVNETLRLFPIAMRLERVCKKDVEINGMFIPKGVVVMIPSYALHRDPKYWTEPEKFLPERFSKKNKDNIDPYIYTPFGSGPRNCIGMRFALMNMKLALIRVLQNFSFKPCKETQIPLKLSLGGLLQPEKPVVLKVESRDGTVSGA

| SMILES | IC50 (B-Raf [1]) | Biochemical activity ratio B/V600E (B-Raf [2]) | Biochemical activity ratio B/C (B-Raf [2]) | IC50 (B-Raf V600E) | Biochemical activity ratio V600E/C (B-Raf V600E) | IC50 (c-Raf-1) | turbidity threshold (L, M, H) 6.8 [3] | turbidity threshold (L, M, H) 7.4 [3] | IC50 (CYP1A2; human, 15 min) | IC50 (CYP2C19) | IC50 (CYP2C9) | IC50 (CYP2D6) | IC50 (CYP3A4(BFC); [4]) | turbidity threshold (L, M, H) 1.4 [3] | turbidity threshold (L, M, H) 4.5 ([3]; pH 4.5 (SIF)) | IC50 (CYP3A4(BFC)) | IC50 (CYP1A2; read-out: Cyp IC50 1A2, CYP1A2, substrate CEC) |
| --- | --- | --- | --- | --- | --- | --- | --- | --- | --- | --- | --- | --- | --- | --- | --- | --- | --- |
| CNc1ncnc2[nH]cc(C(=O)c3c(F)ccc(NS(=O)(=O)c4ccc(C(F)(F)F)cc4)c3F)c12 [P-1026, N-[2,4-Difluoro-3-(4-methylamino-7H-pyrrolo[2,3-d]pyrimidine-5-carbonyl)-phenyl]-4-trifluoromethyl-benzenesulfonamide] | > 0.1 µM | 0.1-10 | >10 | > 0.1 µM | >10 | < 0.1 µM | M (moderate solubility if the threshold concentration is 31.3 μM to 250 μM) | M (moderate solubility if the threshold concentration is 31.3 μM to 250 μM) | > 10 µM | > 10 µM | > 10 µM | > 10 µM | > 10 µM |  |  |  |  |
| COc1ncnc2[nH]cc(C(=O)c3c(F)ccc(NS(=O)(=O)c4cc(C)cc(C)c4)c3F)c12 [P-1025, N-[2,4-Difluoro-3-(4-methoxy-7H-pyrrolo[2,3-d]pyrimidine-5-carbonyl)-phenyl]-3,5-dimethyl-benzenesulfonamide] | > 0.1 µM | 0.1-10 | >10 | > 0.1 µM | 0.1-10 | < 0.1 µM | M (moderate solubility if the threshold concentration is 31.3 μM to 250 μM) |  | > 10 µM | > 10 µM | > 10 µM | > 10 µM |  | M (moderate solubility if the threshold concentration is 31.3 μM to 250 μM) | L (low solubility if the threshold concentration is <31.3 μM) | 5 to 10 µM |  |
| O=C(c1c(F)ccc(NS(=O)(=O)c2ccc(C(F)(F)F)cc2)c1F)c1c[nH]c2ncnc(Cl)c12 [P-1016, N-[3-(4-Chloro-7H-pyrrolo[2,3-d]pyrimidine-5-carbonyl)-2,4-difluoro-phenyl]-4-trifluoromethyl-benzenesulfonamide] | > 0.1 µM | 0.1-10 | >10 | > 0.1 µM | >10 | < 0.1 µM | L (low solubility if the threshold concentration is <31.3 μM) | H (high solubility if the threshold concentration is >250 μm) |  | > 10 µM | > 10 µM | > 10 µM | > 10 µM | L (low solubility if the threshold concentration is <31.3 μM) |  |  | > 10 µM |
